Assay results: patent EP2695950A1, “Markers for responsiveness to an inhibitor of the fibroblast growth factor receptor” (Blackfield AG, priority 2012, dated 2014)
Read-outs that look alike come from different tables or passages of the source.

Columns and labels:
[1] = system: Tumors derived from NIH3T3 cells expressing KRas G12V; experiment: Xenograft mouse model, tumor volume; type: in vivo, mice; conditions: Figure 3; KRas G12V (positive control); 10mg/kg daily by oral gavage
Procedure: (§1) All animal procedures were approved by the local animal protection committee and the local authorities. Xenograft-experiments were performed in 10 to 15 week old male athymic NMRI-nude-mice (Janvier, Europe). Mice were hold in a 12 hour light-dark-cycle. They got water and standard food ad libitium.
(§2) NIH3T3-cells transduced with empty Vector (puro), empty Vector (puro+zeo), KRAS G12V, FGFR1-α, FGFR1-β, FGFR1-β + cMyc were cultured as described before. For implantation they were resuspended in plain RPMI in a concentration of 50*10^6 cells/ml. 5*10^6 cells were injected subcutaneously in mice, under 2.5% Isolflurane-anaesthesia. Tumorgrowth was monitored every 2nd day by calimetric measurement. Tumorvolumes were calculated by V= […].
(§3) Therapy was started when tumors reached a size of 100mm^3. They were treated daily by oral gavage either with 10mg/kg NVP-BGJ 398 (Novartis) dissolved in vehicle (PEG300, 5%Glucose; 2:1) or with the vehicle-detergent alone. After 8 (KRas), 12 (FGFR1-α and FGFR1-β + cMyc), days of therapy mice were sacrificed by intraperitoneal injection of Ketamin/Xylazine (300/60 mg/kg) and tumors were resected and fixed in 4% formaldehyde for histology.

[2] = system: Tumors derived from NIH3T3 cells expressing only FGFR1; experiment: Xenograft mouse model, tumor volume; type: in vivo, mice
Procedure: as §1, §2, §3

[3] = system: Tumors derived from NIH3T3 cells expressing two different splice variants of FGFR1 plus Myc; experiment: Xenograft mouse model, tumor volume; type: in vivo, mice
Procedure: as §1, §2, §3

[4] = system: Tumors derived from NIH3T3 cells expressing EML4-Alk; experiment: Xenograft mouse model, tumor volume; type: in vivo, mice; conditions: Figure 6; EML4-Alk (positive control)
[5] = system: H1581 cell line with Myc downregulated (shMyc); conditions: Figure 12, different concentrations
Procedure: (§4) All compounds were purchased from commercial suppliers, dissolved in DMSO, and stored at - 20°C. Cells were plated into sterile 96-- - well microtiter plates using a multichannel pipette and cultured overnight. Compounds were then added in serial dilutions. Cellular viability was determined after 96 hours of treatment by measuring cellular ATP content using the CellTiter-- Glo Assay (Promega). Plates were measured on a Mithras LB 940 Plate Reader (Berthold Technologies). GI50 values were determined using the following R package (Frommolt P, Thomas RK, 2008, Standardized high-- - throughput evaluation of cell-- - based compound screens. BMC Bioinformatics. 9:475)

H1581 cell line = conditions: Figure 12; different concentrations
Procedure: as §4

[6] = system: FGFR1-amplified and FGFR1 non-amplified cell lines
[7] = Figure 3, FGFR1 plus Myc, 10mg/kg daily by oral gavage

Row | SMILES | tumor size [1] | tumor size ([2]; Figure 3, only FGFR1, 10mg/kg daily by oral gavage) | tumor volume ([2]; Figure 5, tumor expressing only FGFR1, treated mouse) | tumor volume ([2]; Figure 6, two different splice variants of FGFR1) | tumor disappearance [3, 7] | tumor volume [3, 7] | tumor volume ([3]; Figure 5, tumor with FGFR1 and c-myc expression, treated mouse) | tumor volume [4] | response to FGFR inhibition [5] | response to FGFR inhibition (H1581 cell line) | IC50 values ([6]; Figure 8, cell lines expressing high amounts of FGFR and Myc) | IC50 values ([6]; Figure 9, cell lines H1581 and A427, high FGFR, higher FGFR1β/FGFR1α ratio, high Myc expression)
1 | CCN1CCN(c2ccc(Nc3cc(N(C)C(=O)Nc4c(Cl)c(OC)cc(OC)c4Cl)ncn3)cc2)CC1 [BGJ398] | strong tumor growth | stable disease | did not shrink and even little grew | stable disease under treatment | disappeared within ten days of treatment | strong reduction of tumor volume | completely disappeared after ten days of treatment | increase in tumor volume |  |  |  | 
2 | CCN(CC)CCCCNc1ncc2cc(-c3cc(OC)cc(OC)c3)c(NC(=O)NC(C)(C)C)nc2n1 [PD173074] |  |  |  |  |  |  |  |  | less response | highly sensitive/responsive | lower IC50 values | lower IC50 values
